Results from patent US20020137929A1, “1 - (3-heterocyclylphenyl) isothiourea, -isourea, -guanidine and -amidine herbicidal agents” (Intellectual Property Department, BASF Aktiengesellschaft, priority 1998, published 2002).

Assays:
MOOVA (Monochoria) = assay: Preemergence weed control under flooded paddy conditions; format: in vivo, Monochoria vaginalis; conditions: rated 3-4 weeks after treatment
Summary of the method: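 Ratings on a 0-9 visual scale cover stand, vigor, malformation, size, chlorosis and overall appearance relative to a control, taken three to four weeks post-treatment. Application was into flood water over freshly sown silt loam at roughly 0.0313 to 0.500 kg/ha.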

[1] = system: SAGPY (Arrowhead (Pygmaea)); assay: Postemergence weed control under flooded paddy conditions; format: in vivo, Sagittaria pygmaea; conditions: postemergence weeds, 3-4 weeks after treatment
Summary of the method: (§1)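 Injury ratings (0–9 scale covering stand, vigor, malformation, size, chlorosis and overall appearance versus control) were made three to four weeks after treatment. Test material, about 0.0313 to 0.500 kg/ha a.i. in 50/50 v/v aqueous/acetone, was added to flood water 1.5 to 3 cm deep over 3 to 5 cm weeds and 1.5 to 2.5 leaf rice.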

CYPSE (Flatsedge) = assay: as above; format: in vivo, Cyperus serotinus; conditions: postemergence weeds, 3-4 weeks after treatment
Summary of the method: as §1

[2] = system: IPOHE (Morningglory, Ivyleaf); assay: Preemergence herbicidal evaluation; format: in vivo, Ipomoea hederacea; conditions: rated 4-5 weeks after treatment
Summary of the method: (§2)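 Scores use a 0–9 visual scale covering stand, vigor, malformation, size and chlorosis relative to controls, rated four to five weeks after treatment. Before emergence, soil-planted seeds were sprayed with compound in aqueous acetone at roughly 0.0156–0.500 kg/ha and held in the greenhouse.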

GALAP (Galium) = assay: Postemergence herbicidal evaluation; format: in vivo, Galium aparine; conditions: for GALAP herbicidal rating: postemergence
Summary of the method: (§3)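 Two-week seedlings sprayed postemergence at 40 psi; formulation: 1:1 acetone/water, 0.5% TWEEN 20; application ≈0.0156–0.500 kg/ha. Greenhouse grow-out, then 0–9 visual scoring at 4–5 weeks.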

SETVI (Foxtail, Green) = assay: Postemergence herbicidal evaluation; format: in vivo, Setaria viridis; conditions: for SETVI herbicidal rating: postemergence
Summary of the method: as §3

CYPIR (Rice Flatsedge) [3] = assay: Preemergence weed control under flooded paddy conditions; format: in vivo, Cyperus iria; conditions: rated 3-4 weeks after treatment
Summary of the method: (§4)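 First, seeds or propagules go into the top 0.5 cm of silt loam; next, water is held 1.5 to 3 cm over the soil; then compound (50/50 acetone/water) is pipetted into it at about 0.0313 to 0.500 kg/ha; finally plants are rated visually 0-9 after three to four weeks.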

[4] = system: ECHORC (Watergrass (Calif.)); assay: as above; format: in vivo, Echinochloa oryzoides; conditions: rated 3-4 weeks after treatment
Summary of the method: as §4

ABUTH (Velvetleaf) = assay: Postemergence herbicidal evaluation; format: in vivo, Abutilon theophrasti; conditions: for ABUTH herbicidal rating: postemergence
Summary of the method: as §3

ORYSAT (Rice, Tebonnet) = assay: Postemergence herbicidal evaluation; format: in vivo, Oryza sativa, (L.) Tebonnet; conditions: for ORYSAT herbicidal rating: postemergence
Summary of the method: as §3

CYPIR (Rice Flatsedge) [5] = assay: Postemergence weed control under flooded paddy conditions; format: in vivo, Cyperus iria; conditions: postemergence weeds, 3-4 weeks after treatment
Summary of the method: as §1

[6] = system: TRZAWR (Wheat, Winter, cv Riband); assay: Preemergence herbicidal evaluation; format: in vivo, Triticum aestivum; conditions: rated 4-5 weeks after treatment
Summary of the method: as §2

ZEAMX (Corn, Field) = assay: Preemergence herbicidal evaluation; format: in vivo, Zea mays; conditions: rated 4-5 weeks after treatment
Summary of the method: as §2

ECHCG (Barnyardgrass) = assay: Postemergence herbicidal evaluation; format: in vivo, Echinochloa crus-galli; conditions: for ECHCG herbicidal rating: postemergence
Summary of the method: as §3

CCOC(=O)CN1C(=O)C(F)SC1=Nc1cc(-n2c(=O)cc(C(F)(F)F)n(C)c2=O)c(F)cc1Cl (centres unmarked) [Compound 11, Ethyl 2-{{2-chloro-5-[3,6-dihydro-3-methyl-2,6-dioxo-4-(trifluoromethyl)-1(2H)-pyrimidinyl]-4-fluorophenyl}imino}-5-fluoro-4-oxo-3-thiazolidineacetate]
Herbicidal rating MOOVA (MOOVA (Monochoria); 0.0313 kg/ha): 0.0
Herbicidal rating MOOVA (MOOVA (Monochoria); 0.0625 kg/ha): 1.0
Herbicidal rating MOOVA (MOOVA (Monochoria); 0.1250 kg/ha): 4.0
Herbicidal rating MOOVA (MOOVA (Monochoria); 0.2500 kg/ha): 7.0
Herbicidal rating SAGPY ([1]; rate 0.0313 kg/ha): 0.0
Herbicidal rating SAGPY ([1]; rate 0.0625 kg/ha): 0.0
Herbicidal rating SAGPY ([1]; rate 0.1250 kg/ha): 0.0
Herbicidal rating SAGPY ([1]; rate 0.2500 kg/ha): 0.0
Herbicidal rating CYPSE (CYPSE (Flatsedge); rate 0.0313 kg/ha): 0.0
Herbicidal rating CYPSE (CYPSE (Flatsedge); rate 0.0625 kg/ha): 0.0
Herbicidal rating CYPSE (CYPSE (Flatsedge); rate 0.1250 kg/ha): 0.0
Herbicidal rating CYPSE (CYPSE (Flatsedge); rate 0.2500 kg/ha): 0.0
IPOHE preemergence herbicidal rating ([2]; rate 0.0156 kg/ha): 2.0
IPOHE preemergence herbicidal rating ([2]; rate 0.0313 kg/ha): 8.0
IPOHE preemergence herbicidal rating ([2]; rate 0.0625 kg/ha): 8.0
IPOHE preemergence herbicidal rating ([2]; rate 0.1250 kg/ha): 9.0
IPOHE preemergence herbicidal rating ([2]; rate 0.2500 kg/ha): 9.0
GALAP herbicidal rating (GALAP (Galium); rate 0.0156 kg/ha): 3.0
GALAP herbicidal rating (GALAP (Galium); rate 0.0313 kg/ha): 5.0
GALAP herbicidal rating (GALAP (Galium); rate 0.0625 kg/ha): 6.0
GALAP herbicidal rating (GALAP (Galium); rate 0.1250 kg/ha): 6.0
SETVI herbicidal rating (SETVI (Foxtail, Green); rate 0.0156 kg/ha): 0.0
SETVI herbicidal rating (SETVI (Foxtail, Green); rate 0.0313 kg/ha): 0.0
SETVI herbicidal rating (SETVI (Foxtail, Green); rate 0.0625 kg/ha): 6.0
SETVI herbicidal rating (SETVI (Foxtail, Green); rate 0.1250 kg/ha): 9.0
Herbicidal rating CYPIR (CYPIR (Rice Flatsedge) [3]; 0.0313 kg/ha): 0.0
Herbicidal rating CYPIR (CYPIR (Rice Flatsedge) [3]; 0.0625 kg/ha): 0.0
Herbicidal rating CYPIR (CYPIR (Rice Flatsedge) [3]; 0.1250 kg/ha): 0.0
Herbicidal rating CYPIR (CYPIR (Rice Flatsedge) [3]; 0.2500 kg/ha): 0.0
Herbicidal rating ECHORC ([4]; 0.0313 kg/ha): 1.0
Herbicidal rating ECHORC ([4]; 0.0625 kg/ha): 2.0
Herbicidal rating ECHORC ([4]; 0.1250 kg/ha): 2.0
Herbicidal rating ECHORC ([4]; 0.2500 kg/ha): 3.0
ABUTH herbicidal rating (ABUTH (Velvetleaf); rate 0.0156 kg/ha): 9.0
ABUTH herbicidal rating (ABUTH (Velvetleaf); rate 0.0313 kg/ha): 9.0
ABUTH herbicidal rating (ABUTH (Velvetleaf); rate 0.0625 kg/ha): 9.0
ABUTH herbicidal rating (ABUTH (Velvetleaf); rate 0.1250 kg/ha): 9.0
ORYSAT herbicidal rating (ORYSAT (Rice, Tebonnet); rate 0.0156 kg/ha): 2.0
ORYSAT herbicidal rating (ORYSAT (Rice, Tebonnet); rate 0.0313 kg/ha): 2.0
ORYSAT herbicidal rating (ORYSAT (Rice, Tebonnet); rate 0.0625 kg/ha): 3.0
ORYSAT herbicidal rating (ORYSAT (Rice, Tebonnet); rate 0.1250 kg/ha): 3.0
Herbicidal rating CYPIR (CYPIR (Rice Flatsedge) [5]; rate 0.0313 kg/ha): 0.0
Herbicidal rating CYPIR (CYPIR (Rice Flatsedge) [5]; rate 0.0625 kg/ha): 0.0
Herbicidal rating CYPIR (CYPIR (Rice Flatsedge) [5]; rate 0.1250 kg/ha): 0.0
Herbicidal rating CYPIR (CYPIR (Rice Flatsedge) [5]; rate 0.2500 kg/ha): 0.0
TRZAWR preemergence herbicidal rating ([6]; rate 0.0156 kg/ha): 0.0
TRZAWR preemergence herbicidal rating ([6]; rate 0.0313 kg/ha): 0.0
TRZAWR preemergence herbicidal rating ([6]; rate 0.0625 kg/ha): 0.0
TRZAWR preemergence herbicidal rating ([6]; rate 0.1250 kg/ha): 2.0
TRZAWR preemergence herbicidal rating ([6]; rate 0.2500 kg/ha): 5.0
ZEAMX preemergence herbicidal rating (ZEAMX (Corn, Field); rate 0.0156 kg/ha): 0.0
ZEAMX preemergence herbicidal rating (ZEAMX (Corn, Field); rate 0.0313 kg/ha): 0.5
ZEAMX preemergence herbicidal rating (ZEAMX (Corn, Field); rate 0.0625 kg/ha): 3.5
ZEAMX preemergence herbicidal rating (ZEAMX (Corn, Field); rate 0.1250 kg/ha): 4.5
ZEAMX preemergence herbicidal rating (ZEAMX (Corn, Field); rate 0.2500 kg/ha): 5.5
ECHCG herbicidal rating (ECHCG (Barnyardgrass); rate 0.0156 kg/ha): 0.0
ECHCG herbicidal rating (ECHCG (Barnyardgrass); rate 0.0313 kg/ha): 0.0
ECHCG herbicidal rating (ECHCG (Barnyardgrass); rate 0.0625 kg/ha): 6.0
ECHCG herbicidal rating (ECHCG (Barnyardgrass); rate 0.1250 kg/ha): 7.0

CCOC(=O)CN1C(=O)CSC1=Nc1cc(N2C(=O)C3=C(CCCC3)C2=O)c(F)cc1Cl [Compound 47, Ethyl 2-{[2-chloro-5-(1-cyclohexene-1,2-dicarboximido)-4-fluorophenyl]imino}-4-oxo-3-thiazolidineacetate]
Herbicidal rating MOOVA (MOOVA (Monochoria); 0.0313 kg/ha): 5.0
Herbicidal rating MOOVA (MOOVA (Monochoria); 0.0625 kg/ha): 6.0
Herbicidal rating MOOVA (MOOVA (Monochoria); 0.1250 kg/ha): 9.0
Herbicidal rating MOOVA (MOOVA (Monochoria); 0.2500 kg/ha): 9.0
Herbicidal rating SAGPY ([1]; rate 0.0313 kg/ha): 0.0
Herbicidal rating SAGPY ([1]; rate 0.0625 kg/ha): 0.0
Herbicidal rating SAGPY ([1]; rate 0.1250 kg/ha): 4.0
Herbicidal rating SAGPY ([1]; rate 0.2500 kg/ha): 7.0
Herbicidal rating CYPSE (CYPSE (Flatsedge); rate 0.0313 kg/ha): 0.0
Herbicidal rating CYPSE (CYPSE (Flatsedge); rate 0.0625 kg/ha): 0.0
Herbicidal rating CYPSE (CYPSE (Flatsedge); rate 0.1250 kg/ha): 0.0
Herbicidal rating CYPSE (CYPSE (Flatsedge); rate 0.2500 kg/ha): 0.0
Preemergence herbicidal rating IPOHE ([2]; rate 0.0156 kg/ha): 0.0
Preemergence herbicidal rating IPOHE ([2]; rate 0.0313 kg/ha): 0.0
Preemergence herbicidal rating IPOHE ([2]; rate 0.0625 kg/ha): 0.0
Preemergence herbicidal rating IPOHE ([2]; rate 0.1250 kg/ha): 0.0
Preemergence herbicidal rating IPOHE ([2]; rate 0.2500 kg/ha): 9.0
Postemergence herbicidal rating GALAP (GALAP (Galium); Rate 0.0156 kg/ha): 0.0
Postemergence herbicidal rating GALAP (GALAP (Galium); Rate 0.0313 kg/ha): 3.0
Postemergence herbicidal rating GALAP (GALAP (Galium); Rate 0.0625 kg/ha): 3.0
Postemergence herbicidal rating SETVI (SETVI (Foxtail, Green); Rate 0.0156 kg/ha): 0.0
Postemergence herbicidal rating SETVI (SETVI (Foxtail, Green); Rate 0.0313 kg/ha): 0.0
Postemergence herbicidal rating SETVI (SETVI (Foxtail, Green); Rate 0.0625 kg/ha): 0.0
Herbicidal rating CYPIR (CYPIR (Rice Flatsedge) [3]; 0.0313 kg/ha): 0.0
Herbicidal rating CYPIR (CYPIR (Rice Flatsedge) [3]; 0.0625 kg/ha): 0.0
Herbicidal rating CYPIR (CYPIR (Rice Flatsedge) [3]; 0.1250 kg/ha): 4.0
Herbicidal rating CYPIR (CYPIR (Rice Flatsedge) [3]; 0.2500 kg/ha): 6.0
Herbicidal rating ECHORC ([4]; 0.0313 kg/ha): 0.0
Herbicidal rating ECHORC ([4]; 0.0625 kg/ha): 2.0
Herbicidal rating ECHORC ([4]; 0.1250 kg/ha): 4.0
Herbicidal rating ECHORC ([4]; 0.2500 kg/ha): 7.0
Postemergence herbicidal rating ABUTH (ABUTH (Velvetleaf); Rate 0.0156 kg/ha): 9.0
Postemergence herbicidal rating ABUTH (ABUTH (Velvetleaf); Rate 0.0313 kg/ha): 9.0
Postemergence herbicidal rating ABUTH (ABUTH (Velvetleaf); Rate 0.0625 kg/ha): 9.0
Postemergence herbicidal rating ORYSAT (ORYSAT (Rice, Tebonnet); Rate 0.0156 kg/ha): 0.5
Postemergence herbicidal rating ORYSAT (ORYSAT (Rice, Tebonnet); Rate 0.0313 kg/ha): 1.5
Postemergence herbicidal rating ORYSAT (ORYSAT (Rice, Tebonnet); Rate 0.0625 kg/ha): 3.0
Herbicidal rating CYPIR (CYPIR (Rice Flatsedge) [5]; rate 0.0313 kg/ha): 0.0
Herbicidal rating CYPIR (CYPIR (Rice Flatsedge) [5]; rate 0.0625 kg/ha): 0.0
Herbicidal rating CYPIR (CYPIR (Rice Flatsedge) [5]; rate 0.1250 kg/ha): 4.0
Herbicidal rating CYPIR (CYPIR (Rice Flatsedge) [5]; rate 0.2500 kg/ha): 6.0
Preemergence herbicidal rating TRZAWR ([6]; rate 0.0156 kg/ha): 0.0
Preemergence herbicidal rating TRZAWR ([6]; rate 0.0313 kg/ha): 0.0
Preemergence herbicidal rating TRZAWR ([6]; rate 0.0625 kg/ha): 0.0
Preemergence herbicidal rating TRZAWR ([6]; rate 0.1250 kg/ha): 0.0
Preemergence herbicidal rating TRZAWR ([6]; rate 0.2500 kg/ha): 0.0
Preemergence herbicidal rating ZEAMX (ZEAMX (Corn, Field); rate 0.0156 kg/ha): 0.0
Preemergence herbicidal rating ZEAMX (ZEAMX (Corn, Field); rate 0.0313 kg/ha): 0.0
Preemergence herbicidal rating ZEAMX (ZEAMX (Corn, Field); rate 0.0625 kg/ha): 0.0
Preemergence herbicidal rating ZEAMX (ZEAMX (Corn, Field); rate 0.1250 kg/ha): 0.0
Preemergence herbicidal rating ZEAMX (ZEAMX (Corn, Field); rate 0.2500 kg/ha): 2.0
Postemergence herbicidal rating ECHCG (ECHCG (Barnyardgrass); Rate 0.0156 kg/ha): 0.0
Postemergence herbicidal rating ECHCG (ECHCG (Barnyardgrass); Rate 0.0313 kg/ha): 0.0
Postemergence herbicidal rating ECHCG (ECHCG (Barnyardgrass); Rate 0.0625 kg/ha): 0.0
